Values of other authors as cited in US9265757B2, “Methods of administering antihistamines” (APTAPHARMA INC., priority 2011, dated 2016).

Conditions: second generation antihistamines; from time of administration to symptomatic relief

Compound	lag time before onset of action
COc1ccc(CCN2CCC(Nc3nc4ccccc4n3Cc3ccc(F)cc3)CC2)cc1 [astemizole]	several hours
O=C(O)COCCN1CCN(C(c2ccccc2)c2ccc(Cl)cc2)CC1 (stereo not shown) [cetirizine]	several hours
CCOC(=O)N1CCC(=C2c3ccc(Cl)cc3CCc3cccnc32)CC1 [loratadine]	several hours
CC(C)(C)c1ccc(C(O)CCCN2CCC(C(O)(c3ccccc3)c3ccccc3)CC2)cc1 (stereo not shown) [terfenadine]	several hours
